In ChEMBL document CHEMBL3046689, “Volatile aldehydes are promising broad-spectrum postharvest insecticides” (J Agric Food Chem, 2000):
Calls of active or inactive are those of the source. No cut-off for these calls is given here.

What was measured:
Myzus persicae [1] = assay: Insecticidal activity against Myzus persicae (green peach aphid) applied through two-tier reduced pressure fumigation at 30 mmHg for 0.5 hr and then 760 mmHg for 1.5 hr at 23 +/- 1 degC; assay type: functional
Lactuca sativa [2] = assay: Phytotoxicity in naked Lactuca sativa (lettuce) assessed as change in visual quality after compound application through two-tier reduced pressure fumigation at 30 mmHg for 0.5 hr and then 760 mmHg for 1.5 hr at 23 +/- 1 degC after 2 hr; assay type: organism-based; conditions: in vivo
Myzus persicae [3] = assay: Insecticidal activity against Myzus persicae (green peach aphid) placed under third leaf of naked Iceburg lettuce heads and after compound application for 2 hr through two-tier reduced pressure fumigation at 30 mmHg for 0.5 hr and then 760 mmHg for 1.5 hr at 23 +/- 1 degC measured after 24 hr; assay type: functional
Persea americana = assay: Phytotoxicity in Persea americana (avocado) assessed as induction of visual damage after compound application for 1 hr through two-tier reduced pressure fumigation at 30 mmHg for 0.5 hr and then 760 mmHg for 1.5 hr at 23 +/- 1 degC; assay type: organism-based; conditions: in vivo
Citrus x paradisi [4] = assay: Phytotoxicity in Citrus x paradisi (grape fruit) assessed as induction of visual damage after compound application for 1 hr through two-tier reduced pressure fumigation at 30 mmHg for 0.5 hr and then 760 mmHg for 1.5 hr at 23 +/- 1 degC; assay type: organism-based; conditions: in vivo
[5] = system: Brassica oleracea var. capitata; assay: Phytotoxicity in Brassica oleracea var. capitata (cabbage) assessed as induction of visual damage after compound application for 1 hr through two-tier reduced pressure fumigation at 30 mmHg for 0.5 hr and then 760 mmHg for 1.5 hr at 23 +/- 1 degC; assay type: organism-based; conditions: in vivo
Lactuca sativa [6] = assay: Phytotoxicity in wrapped Lactuca sativa (lettuce) assessed as induction of visual damage after compound application for 1 hr through two-tier reduced pressure fumigation at 30 mmHg for 0.5 hr and then 760 mmHg for 1.5 hr at 23 +/- 1 degC; assay type: organism-based; conditions: in vivo
[7] = system: Brassica oleracea var. italica; assay: Phytotoxicity in Brassica oleracea var. italica assessed as induction of visual damage after compound application for 1 hr through two-tier reduced pressure fumigation at 30 mmHg for 0.5 hr and then 760 mmHg for 1.5 hr at 23 +/- 1 degC; assay type: organism-based; conditions: in vivo
Phaseolus vulgaris [8] = assay: PhytoToxicity in Phaseolus vulgaris (beans) assessed as induction of olfactory damage after compound application for 1 hr through two-tier reduced pressure fumigation at 30 mmHg for 0.5 hr and then 760 mmHg for 1.5 hr at 23 +/- 1 degC; assay type: organism-based; conditions: in vivo
Oryza sativa = assay: Phytotoxicity in Oryza sativa (rice) assessed as induction of olfactory damage after compound application for 1 hr through two-tier reduced pressure fumigation at 30 mmHg for 0.5 hr and then 760 mmHg for 1.5 hr at 23 +/- 1 degC; assay type: organism-based; conditions: in vivo
Vitis vinifera [9] = assay: (§1) Phytotoxicity in Vitis vinifera assessed as induction of olfactory damage after compound application for 1 hr through two-tier reduced pressure fumigation at 30 mmHg for 0.5 hr and then 760 mmHg for 1.5 hr at 23 +/- 1 degC; assay type: organism-based; conditions: in vivo
Vitis vinifera [10] = assay: as §1; assay type: organism-based; conditions: in vivo; remark: listed apart in the source
Malus domestica = assay: Phytotoxicity in Malus x domestica (apple) assessed as induction of olfactory damage after compound application for 1 hr through two-tier reduced pressure fumigation at 30 mmHg for 0.5 hr and then 760 mmHg for 1.5 hr at 23 +/- 1 degC; assay type: organism-based; conditions: in vivo
Tetranychus urticae = assay: Insecticidal activity against Tetranychus urticae (two-spotted spider mite); assay type: functional, organism-based
[11] = system: Frankliniella occidentalis; assay: Insecticidal activity against Frankliniella occidentalis (western flower thrips); assay type: functional, organism-based
Pseudococcus affinis = assay: Insecticidal activity against Pseudococcus affinis; assay type: functional, organism-based
Pseudococcus viburni = assay: Insecticidal activity against Pseudococcus viburni; assay type: functional, organism-based
Phaseolus vulgaris [12] = assay: PhytoToxicity in Phaseolus vulgaris (beans) assessed as induction of visual damage after compound application for 1 hr through two-tier reduced pressure fumigation at 30 mmHg for 0.5 hr and then 760 mmHg for 1.5 hr at 23 +/- 1 degC; assay type: organism-based; conditions: in vivo, other
Vitis vinifera [13] = assay: Phytotoxicity in Vitis vinifera assessed as induction of visual damage after compound application for 1 hr through two-tier reduced pressure fumigation at 30 mmHg for 0.5 hr and then 760 mmHg for 1.5 hr at 23 +/- 1 degC; assay type: organism-based; conditions: in vivo
Lactuca sativa [14] = assay: Phytotoxicity in naked Lactuca sativa (lettuce) assessed as residual aldehyde odor after compound application through two-tier reduced pressure fumigation at 30 mmHg for 0.5 hr and then 760 mmHg for 1.5 hr at 23 +/- 1 degC after 2 hr; assay type: organism-based; conditions: in vivo
Citrus limon [15] = assay: Phytotoxicity in Citrus limon (lemon) assessed as induction of visual damage after compound application for 1 hr through two-tier reduced pressure fumigation at 30 mmHg for 0.5 hr and then 760 mmHg for 1.5 hr at 23 +/- 1 degC; assay type: organism-based; conditions: citrus x limon, in vivo
Citrus sinensis [16] = assay: Phytotoxicity in Citrus sinensis (orange) assessed as induction of visual damage after compound application for 1 hr through two-tier reduced pressure fumigation at 30 mmHg for 0.5 hr and then 760 mmHg for 1.5 hr at 23 +/- 1 degC; assay type: organism-based; conditions: in vivo
Citrus limon [17] = assay: Phytotoxicity in Citrus limon (lemon) assessed as induction of olfactory damage after compound application for 1 hr through two-tier reduced pressure fumigation at 30 mmHg for 0.5 hr and then 760 mmHg for 1.5 hr at 23 +/- 1 degC; assay type: organism-based; conditions: citrus x limon, in vivo
Citrus sinensis [18] = assay: Phytotoxicity in Citrus sinensis (orange) assessed as induction of olfactory damage after compound application for 1 hr through two-tier reduced pressure fumigation at 30 mmHg for 0.5 hr and then 760 mmHg for 1.5 hr at 23 +/- 1 degC; assay type: organism-based; conditions: in vivo
Citrus x paradisi [19] = assay: Phytotoxicity in Citrus x paradisi (grape fruit) assessed as induction of olfactory damage after compound application for 1 hr through two-tier reduced pressure fumigation at 30 mmHg for 0.5 hr and then 760 mmHg for 1.5 hr at 23 +/- 1 degC; assay type: organism-based; conditions: in vivo
[20] = system: Brassica oleracea var. italica; assay: Phytotoxicity in Brassica oleracea var. italica assessed as induction of olfactory damage after compound application for 1 hr through two-tier reduced pressure fumigation at 30 mmHg for 0.5 hr and then 760 mmHg for 1.5 hr at 23 +/- 1 degC; assay type: organism-based; conditions: in vivo
Lactuca sativa [21] = assay: Phytotoxicity in naked Lactuca sativa (lettuce) assessed as change in visual quality after compound application for 1 hr through two-tier reduced pressure fumigation at 30 mmHg for 0.5 hr and then 760 mmHg for 1.5 hr at 23 +/- 1 degC; assay type: organism-based; conditions: in vivo
[22] = system: Brassica oleracea var. capitata; assay: Phytotoxicity in Brassica oleracea var. capitata (cabbage) after compound application for 1 hr through two-tier reduced pressure fumigation at 30 mmHg for 0.5 hr and then 760 mmHg for 1.5 hr at 23 +/- 1 degC; assay type: organism-based; conditions: in vivo
Lactuca sativa [23] = assay: Phytotoxicity in naked Lactuca sativa (lettuce) after compound application for 1 hr through two-tier reduced pressure fumigation at 30 mmHg for 0.5 hr and then 760 mmHg for 1.5 hr at 23 +/- 1 degC; assay type: organism-based; conditions: in vivo
Myzus persicae [24] = assay: Insecticidal activity against Myzus persicae (green peach aphid) infested wrapped lettuce applied for 1 hr through two-tier reduced pressure fumigation at 30 mmHg for 0.5 hr and then 760 mmHg for 1.5 hr at 23 +/- 1 degC measured 24 hr; assay type: functional, organism-based

With `CCC=O` [PROPIONALDEHYDE] the CTP (Myzus persicae [1]) was 4.2 mg/L.hr, the Activity (Lactuca sativa [2]) was “Toxic” and the CTP (Myzus persicae [3]) was 304 mg/L.hr. For the same molecule, the LD90 (Myzus persicae [3]) was 124.5 mg/L, the Activity (Persea americana) was “Non-toxic” and the Activity (Citrus x paradisi [4]) was “Non-toxic”. For the same molecule, the Activity [5] was “Non-toxic”, the Activity (Lactuca sativa [6]) was “Non-toxic” and the Activity [7] was “Non-toxic”. For the same molecule, the Activity (Phaseolus vulgaris [8]) was “Non-toxic”, the Activity (Oryza sativa) was “Non-toxic” and the Activity (Vitis vinifera [9]) was “Non-toxic”. For the same molecule, the Activity (Vitis vinifera [10]) was “Non-toxic”, the Activity (Malus domestica) was “Non-toxic” and the Activity (Tetranychus urticae) was “inactive”. For the same molecule, the Activity [11] was “Active”, the Activity (Pseudococcus affinis) was “Active” and the Activity (Pseudococcus viburni) was “Active”. The Activity (Phaseolus vulgaris [12]) was “Non-toxic”, the Activity (Vitis vinifera [13]) was “Non-toxic” and the Activity (Lactuca sativa [14]) was “Toxic”. For the same molecule, the Activity (Citrus limon [15]) was “Non-toxic”, the Activity (Citrus sinensis [16]) was “Non-toxic” and the Activity (Citrus limon [17]) was “Non-toxic”. For the same molecule, the Activity (Citrus sinensis [18]) was “Non-toxic”, the Activity (Citrus x paradisi [19]) was “Non-toxic” and the Activity [20] was “Toxic”. For the same molecule, the Activity (Lactuca sativa [21]) was “Toxic”, the Activity [22] was “Toxic” and the Activity (Lactuca sativa [23]) was “Toxic”. For the same molecule, the Activity (Myzus persicae [24]) was “Active”.
